Experimental data: patent US10188642B2, “Pharmacologically active compounds” (Cancer Research Technology Limited, priority 2012, dated 2019)
pIC50: −log10 of the molar value. Read-outs that look alike come from different tables or passages of the source.

Molecular target: full length MPS1 (Homo sapiens (Human), UniProt P33981)
Test: Measurement of inhibition of MPS1 kinase (Caliper EZ reader mobility shift assay)
Type: biochemical
Description: Measurement of Inhibition of MPS1 Kinase
(5 μM), ATP(10 μM), either DMSO (1% v/v) or the test compound (in the range 0.25 nM-100 μM in 1% DMSO) and assay buffer (50 mM HEPES (pH 7.0), 0.02% NaN3, 0.01% BSA, 0.1 mM Orthovandate, […], 1 μM DTT, Roche protease inhibitor). The reaction was carried out for 60 min at room temperature and stopped by the addition of buffer (10 μl) containing 20 mM EDTA, 0.05% (v/v) Brij-35, in 0.1M HEPES-buffered saline (Free acid, Sigma, UK). The plate was read on a Caliper EZ reader II (Caliper Life Sciences).
The reader provides a Software package (‘Reviewer’) which converts the peak heights into % conversion by measuring both product and substrate peak and also allows selection of control well which represent 0% and 100% inhibition respectively. The % inhibition of the compounds is calculated relative to the means of selected control wells. IC50s are determined by testing the compounds at a range of concentrations from 0.25 nM-100 μM. The % inhibitions at each concentration are then fitted to a 4 parameter logistic fit: y=(a+((b−a)/(1+((c/x^d)))) where a=asym min, b=asym max, c=IC50 and d=hill coefficient

[1] = full length MPS1 12.5 nM or 3 nM, H236 peptide 5 μM, ATP 10 μM, 60 min at room temperature, read-out: MPS1 IC50

full length MPS1, sequence (P33981 whole entry): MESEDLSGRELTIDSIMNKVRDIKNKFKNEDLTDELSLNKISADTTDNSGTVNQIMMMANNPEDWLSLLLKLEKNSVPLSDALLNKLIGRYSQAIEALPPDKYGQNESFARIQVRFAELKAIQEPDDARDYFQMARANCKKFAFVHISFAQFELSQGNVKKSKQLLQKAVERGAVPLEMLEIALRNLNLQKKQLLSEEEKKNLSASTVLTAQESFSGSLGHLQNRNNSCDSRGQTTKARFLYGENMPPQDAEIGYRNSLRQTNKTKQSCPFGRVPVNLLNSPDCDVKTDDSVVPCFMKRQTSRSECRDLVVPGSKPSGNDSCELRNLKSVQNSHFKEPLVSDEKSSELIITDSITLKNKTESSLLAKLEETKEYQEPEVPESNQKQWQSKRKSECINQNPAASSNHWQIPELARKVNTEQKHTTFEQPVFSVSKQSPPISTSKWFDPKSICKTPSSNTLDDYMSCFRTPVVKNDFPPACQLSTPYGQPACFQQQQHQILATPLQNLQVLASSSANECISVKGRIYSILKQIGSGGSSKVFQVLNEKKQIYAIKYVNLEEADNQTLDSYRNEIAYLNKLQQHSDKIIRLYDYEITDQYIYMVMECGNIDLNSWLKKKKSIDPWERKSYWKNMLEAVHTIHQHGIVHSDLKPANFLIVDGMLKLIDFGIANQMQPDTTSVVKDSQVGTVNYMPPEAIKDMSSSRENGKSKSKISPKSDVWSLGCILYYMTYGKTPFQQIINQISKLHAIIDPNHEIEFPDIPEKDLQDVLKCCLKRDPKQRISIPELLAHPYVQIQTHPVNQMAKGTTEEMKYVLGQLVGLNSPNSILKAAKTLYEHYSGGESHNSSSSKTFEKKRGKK

Q: `CNC(=O)c1ccc2cnc(Nc3ccc(-c4cnn(C)c4)cc3OC)cc2n1` [Example 108, 7-(2-Methoxy-4-(1-methyl-1H-pyrazol-4-yl)phenylamino)-N-methyl-1,6-naphthyridine-2-carboxamide] was tested. Which pIC50 [1] did it give?
A: 8.15

Q: With `COc1cc(-c2cnc(C)n2C)ccc1Nc1cc2cc(-c3cnn(CC(O)CO)c3)ccc2cn1` (racemic) [Example 109, Racemic 3-(4-(3-((4-(1,2-Dimethyl-1H-imidazol-5-yl)-2-methoxyphenyl)amino)isoquinolin-6-yl)-1H-pyrazol-1-yl)propane-1,2-diol] as the compound, how does the pIC50 read?
A: 8.52

Q: With `COCCn1cc(-c2ccc3cnc(Nc4ccc(-c5cnn(C)c5CO)cc4OC)cc3c2)cn1` [Example 32, (4-(3-Methoxy-4-((6-(1-(2-methoxyethyl)-1H-pyrazol-4-yl)isoquinolin-3-yl)amino)phenyl)-1-methyl-1H-pyrazol-5-yl)methanol] as the compound, how does the pIC50 [1] read?
A: 8.52
